Measurements published in PubChem BioAssay AID248 (DTP/NCI, 2004).
Several values for one entry are separate records, joined by “and”; a condition that tells them apart may be missing. Equal values may be shown once. Toxic doses and inconclusive results are not listed. Rule as the data show it: active = T/C of 150% or more; inactive = T/C below 125%.

Test system: L1210 leukemia ip in BDF1 mice, survival T/C
Assay: NCI In Vivo Anticancer Drug Screen. Data for tumor model L1210 Leukemia (intraperitoneal) in B6D2F1 (BDF1) mice
Conditions: endpoint: mean survival time, higher = longer survival
In short: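 Read-out is survival time, reported as the treated-group measurement over the vehicle-control measurement.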

[1] = dose: 100.0 mg/kg/injection, schedule: Q01DX001 (ip), vehicle: carboxymethylcellulose (CMC)
[2] = dose: 100.0 mg/kg/injection, schedule: Q04DX003 (ip), vehicle: saline
[3] = dose: 200.0 mg/kg/injection, schedule: Q01DX001 (ip), vehicle: carboxymethylcellulose (CMC)
[4] = dose: 200.0 mg/kg/injection, schedule: Q04DX003 (ip), vehicle: saline
[5] = dose: 400.0 mg/kg/injection, schedule: Q01DX001 (ip), vehicle: carboxymethylcellulose (CMC)
[6] = dose: 400.0 mg/kg/injection, schedule: Q04DX003 (ip), vehicle: saline
[7] = dose: 25.0 mg/kg/injection, schedule: Q01DX009 (ip), vehicle: saline
[8] = dose: 50.0 mg/kg/injection, schedule: Q01DX009 (ip), vehicle: saline
[9] = dose: 100.0 mg/kg/injection, schedule: Q01DX009 (ip), vehicle: saline
[10] = dose: 100.0 mg/kg/injection, schedule: Q01DX009 (ip), vehicle: Klucel (hydroxypropylcellulose) (HPC)
[11] = dose: 200.0 mg/kg/injection, schedule: Q01DX009 (ip), vehicle: Klucel (hydroxypropylcellulose) (HPC)
[12] = dose: 400.0 mg/kg/injection, schedule: Q01DX009 (ip), vehicle: Klucel (hydroxypropylcellulose) (HPC)
[13] = dose: 100.0 mg/kg/injection, schedule: Q01DX009 (ip), vehicle: saline with Tween-80
[14] = dose: 200.0 mg/kg/injection, schedule: Q01DX009 (ip), vehicle: saline with Tween-80
[15] = dose: 100.0 mg/kg/injection, schedule: Q04DX003 (ip), vehicle: saline with Tween-80
[16] = dose: 200.0 mg/kg/injection, schedule: Q04DX003 (ip), vehicle: saline with Tween-80
[17] = dose: 400.0 mg/kg/injection, schedule: Q01DX009 (ip), vehicle: saline with Tween-80
[18] = dose: 400.0 mg/kg/injection, schedule: Q04DX003 (ip), vehicle: saline with Tween-80

Measured: T/C

CCCCC(CCCC)NC(C)COC(=O)c1ccc(N)cc1 (stereo unspecified)
inactive: dose: 75.0 mg/kg/injection, schedule: Q01DX001 (ip), vehicle: carboxymethylcellulose (CMC) 104 % of control | dose: 150.0 mg/kg/injection, schedule: Q01DX001 (ip), vehicle: carboxymethylcellulose (CMC) 100 % of control | dose: 300.0 mg/kg/injection, schedule: Q01DX001 (ip), vehicle: carboxymethylcellulose (CMC) 101 % of control

CN(C)c1c(-c2ccc(Cl)cc2)cc(-c2ccccc2)[nH]c1=O
inactive: [1] 97 % of control | dose: 100.0 mg/kg/injection, schedule: Q01DX009 (ip), vehicle: acetone 95 % of control | [2] 89 % of control | [3] 91 % of control | dose: 200.0 mg/kg/injection, schedule: Q01DX009 (ip), vehicle: acetone 98 % of control | [4] 89 % of control | [5] 91 % of control | dose: 400.0 mg/kg/injection, schedule: Q01DX009 (ip), vehicle: acetone 93 % of control | [6] 87 % of control

C=CCOc1ccnc(SC)n1
inactive: dose: 75.0 mg/kg/injection, schedule: Q01DX009 (ip), vehicle: Klucel (hydroxypropylcellulose) (HPC) 98 % of control | dose: 150.0 mg/kg/injection, schedule: Q01DX009 (ip), vehicle: Klucel (hydroxypropylcellulose) (HPC) 103 % of control | dose: 300.0 mg/kg/injection, schedule: Q01DX009 (ip), vehicle: Klucel (hydroxypropylcellulose) (HPC) 90 % of control

CCCCS/C=C\SCCCC
inactive: dose: 100.0 mg/kg/injection, schedule: Q04DX002 (sc), vehicle: olive oil, sesame oil, peanut oil 107 % of control | dose: 200.0 mg/kg/injection, schedule: Q04DX002 (sc), vehicle: olive oil, sesame oil, peanut oil 104 % of control | dose: 400.0 mg/kg/injection, schedule: Q04DX002 (sc), vehicle: olive oil, sesame oil, peanut oil 104 % of control

CN(C)CCCN1Cc2ccccc2Cc2ccccc21
inactive: dose: 6.25 mg/kg/injection, schedule: Q01DX009 (ip), vehicle: saline 106 % of control | dose: 12.5 mg/kg/injection, schedule: Q01DX009 (ip), vehicle: saline 88 % of control | [7] 97 % of control | dose: 25.0 mg/kg/injection, schedule: Q04DX003 (ip), vehicle: saline 97 % of control | [8] 104 % of control | dose: 50.0 mg/kg/injection, schedule: Q04DX003 (ip), vehicle: saline 108 % of control | [9] 100 % of control | [2] 108 % of control

COc1ccccc1CN1CCCOP1(=O)Nc1ccccc1 (stereo unspecified)
inactive: dose: 50.0 mg/kg/injection, schedule: Q01DX001 (ip), vehicle: carboxymethylcellulose (CMC) 91 % of control | [1] 91 % of control | [3] 93 % of control | [5] 93 % of control

Cc1ccccc1N1C(=O)c2ccccc2C1=O
inactive: [10] 95 % of control | dose: 100.0 mg/kg/injection, schedule: Q04DX002 (ip), vehicle: Klucel (hydroxypropylcellulose) (HPC) 96 % of control | [11] 98 % of control | dose: 200.0 mg/kg/injection, schedule: Q04DX002 (ip), vehicle: Klucel (hydroxypropylcellulose) (HPC) 86 % of control | [12] 98 % of control | dose: 400.0 mg/kg/injection, schedule: Q04DX002 (ip), vehicle: Klucel (hydroxypropylcellulose) (HPC) 93 % of control

O=C(O)C1C(C(=O)O)C2(c3ccccc3)c3ccccc3C12 (stereo unspecified)
inactive: dose: 9.38 mg/kg/injection, schedule: Q01DX001 (ip), vehicle: other 92 % of control | dose: 18.75 mg/kg/injection, schedule: Q01DX001 (ip), vehicle: other 92 % of control | dose: 37.5 mg/kg/injection, schedule: Q01DX001 (ip), vehicle: other 102 % of control

CCCCCCCNc1ccc(C(=O)O)cc1
inactive: dose: 37.5 mg/kg/injection, schedule: Q01DX009 (ip), vehicle: saline 105 % of control | dose: 75.0 mg/kg/injection, schedule: Q01DX001 (ip), vehicle: saline 93 % of control | dose: 75.0 mg/kg/injection, schedule: Q01DX009 (ip), vehicle: saline 94 % of control | dose: 75.0 mg/kg/injection, schedule: Q04DX003 (ip), vehicle: saline 105 % of control | dose: 150.0 mg/kg/injection, schedule: Q01DX001 (ip), vehicle: saline 104 % of control | dose: 150.0 mg/kg/injection, schedule: Q01DX009 (ip), vehicle: saline 98 % of control | dose: 150.0 mg/kg/injection, schedule: Q04DX003 (ip), vehicle: saline 109 % of control | dose: 300.0 mg/kg/injection, schedule: Q01DX001 (ip), vehicle: saline 102 % of control | dose: 300.0 mg/kg/injection, schedule: Q04DX003 (ip), vehicle: saline 102 % of control

CCN(CC)C(=O)Oc1ccc(OC)cc1
inactive: [13] 109 % of control | [14] 96 % of control

c1ccc(C2=NNc3cccc[n+]3C2)cc1
inactive: dose: 75.0 mg/kg/injection, schedule: Q01DX001 (ip), vehicle: other 101 % of control

O=c1cc(Cl)c(=O)[nH][nH]1
inactive: [13] 100 % of control | [15] 94 % of control | [14] 100 % of control | [16] 94 % of control | [17] 114 % of control | [18] 94 % of control

O=C(Cc1ccccc1)Nc1cccc(C(F)(F)F)c1
inactive: [10] 91 % of control | [11] 95 % of control | [12] 98 % of control

CCC(Cl)COP(=O)(OCC(Cl)CC)C(CC)P(=O)(OCC(Cl)CC)OCC(Cl)CC (stereo unspecified)
inactive: [2] 91 % of control | [4] 95 % of control | [6] 93 % of control

NC(N)=Nc1ccc(C(=O)Oc2ccc([N+](=O)[O-])cc2CN2CCCCC2)cc1
inactive: dose: 0.5 mg/kg/injection, schedule: Q04DX003 (ip), vehicle: water 102 % of control | dose: 1.0 mg/kg/injection, schedule: Q04DX003 (ip), vehicle: water 110 % of control | dose: 2.0 mg/kg/injection, schedule: Q04DX003 (ip), vehicle: water 96 % of control | dose: 3.12 mg/kg/injection, schedule: Q01DX009 (ip), vehicle: water 93 % of control | dose: 3.12 mg/kg/injection, schedule: Q04DX003 (ip), vehicle: water 105 % of control | dose: 4.0 mg/kg/injection, schedule: Q04DX003 (ip), vehicle: water 102 % of control | dose: 6.25 mg/kg/injection, schedule: Q01DX009 (ip), vehicle: water 96 % of control | dose: 12.5 mg/kg/injection, schedule: Q01DX009 (ip), vehicle: water 101 % of control | dose: 12.5 mg/kg/injection, schedule: Q04DX003 (ip), vehicle: water 108 % of control

CCCCCC(N)C(=O)O (stereo unspecified)
inactive: dose: 12.5 mg/kg/injection, schedule: Q04DX002 (ip), vehicle: saline 104 % of control | dose: 25.0 mg/kg/injection, schedule: Q04DX002 (ip), vehicle: saline 100 % of control | dose: 50.0 mg/kg/injection, schedule: Q04DX002 (ip), vehicle: saline 107 % of control

O=C(Nc1ccccc1C(F)(F)F)c1ccc(Cl)cc1Cl
inactive: [13] 91 % of control | [15] 94 % of control | [14] 96 % of control | [16] 92 % of control | [17] 89 % of control | [18] 95 % of control

O=C(O)c1c(O)cc(=O)oc1-c1ccc(Cl)cc1
inactive: [1] 87 % of control | [3] 92 % of control | [5] 100 % of control

COc1ccc(O)c(/C=C\C=O)c1
inactive: [1] 100 % of control | [3] 100 % of control | [5] 106 % of control

CCCCCCCC[As](C)(=O)O
inactive: dose: 6.25 mg/kg/injection, schedule: Q01DX009 (ip), vehicle: saline with Tween-80 89 % of control

CC(=O)OC1CCCC1OC(=O)c1ccc([N+](=O)[O-])cc1 (stereo unspecified)
inactive: dose: 100.0 mg/kg/injection, schedule: Q04DX003 (ip), vehicle: other 106 % of control | dose: 200.0 mg/kg/injection, schedule: Q04DX003 (ip), vehicle: other 96 % of control | dose: 400.0 mg/kg/injection, schedule: Q04DX003 (ip), vehicle: other 95 % of control

NCCc1cc(O)c(O)cc1O
inactive: [7] 102 % of control and 107 % of control | [8] 93 % of control and 103 % of control | [9] 93 % of control and 91 % of control | dose: 200.0 mg/kg/injection, schedule: Q01DX009 (ip), vehicle: saline 88 % of control | dose: 400.0 mg/kg/injection, schedule: Q01DX009 (ip), vehicle: saline 86 % of control
